Columns and labels:
Format in all cases: in vivo
TNF-α = experiment: Plasma TNF-α level, rats with gastric injury without inflammation; conditions: one day after 1.11 mmol/kg, vs control group H, FIG. 21
Experimental: Plasma TNF-α concentrations were determined in duplicate by means of a commercially available enzyme-linked immunosorbent assay (Quantikine ultrasensitive enzyme-linked immunosorbent assay kit for rat TNF-α; Biomedica Hungaria Kft, Budapest, Hungary). The minimum detectable level was less than 5 pg/ml, and the inter-assay and intra-assay coefficients of variation were less than 10%.
Further experiments regarding the effect of a compound of formula (I) and a pharmaceutical composition comprising a compound of formula (I), respectively, on gastric injury without inflammation were conducted on rats. 15 animals were randomly allocated into three groups. Group H (n=5) served as sham-operated controls. Samples of all animals were drawn on day 1 of the clinical tests. On day 2 the animals of group I (n=5) were force-fed acetylsalicylic acid (ASS) (1.11 mmol/kg body weight). Group K (n=5) was force-fed 1.11 mmol/kg body weight of the compound according to the invention. […] Fluorescence confocal endomicroscopy was performed to examine the microvasculature and morphologic changes of the mucosa of the distal colon, and full-thickness tissue samples and venous blood samples were taken to determine the biochemical changes in the colon and plasma. The effects were determined by way of measurement of body weight, blood gas analysation and biopsy. […]

colon inflammation = experiment: Macroscopic score of colon inflammation, rats with TNBS-induced colitis; conditions: 1.11 mmol/kg, Morris score 0-4, untreated colitis group class 3 to 4, FIG. 29
Experimental: Colonic inflammation was induced by intracolonic administration of TNBS (2,4,6-trinitrobenzenesulfonic acid) (40 mg/kg in 0.25 ml of 25% aqueous ethanol) through an 8-cm-long soft plastic catheter under transient diethylether anesthesia. In the sham-operated groups, only the vehicle for TNBS was administered. The animals were deprived of food, but not water, for 12 h before the enemas. […] The other animals only received the respective solvent again. Two days after the enema the effects of the treatment were determined by measurement of body weight, blood gas analysis and biopsy. The animals were anesthetized two days after colitis induction. Surgery was performed to allow registration of the hemodynamic parameters at 1 h intervals for 6 h (cardiac output [CO] data were measured only at the end of the experiments). Intravital videomicroscopy was performed at the end of the experiments to visualize the serosal microcirculation 3 cm distal from the cecum. In addition, fluorescence confocal endomicroscopy was performed to examine the microvasculature and morphologic changes of the mucosa of the distal colon, and full-thickness tissue samples and venous blood samples were taken to determine the biochemical changes in the colon and plasma. […]

xanthine oxidase enzyme [1] = experiment: Xanthine oxidase enzyme activity in tissue, rats with TNBS-induced colitis; conditions: gastric and colon tissue, 1.11 mmol/kg, FIGS. 33a/33b
Experimental: (§1) Colonic inflammation was induced by intracolonic administration of TNBS (2,4,6-trinitrobenzenesulfonic acid) (40 mg/kg in 0.25 ml of 25% aqueous ethanol) through an 8-cm-long soft plastic catheter under transient diethylether anesthesia. In the sham-operated groups, only the vehicle for TNBS was administered. The animals were deprived of food, but not water, for 12 h before the enemas.
(§2) The XOR activity was determined in the ultrafiltered, concentrated supernatant by fluorometric kinetic assay based on the conversion of pterine to isoxanthopterine in the presence (total XOR) or absence (xanthine oxidase activity) of the electron acceptor methylene blue.
(§3) The above-described clinical studies were repeated with animals having colitis which was induced as described above. […] Two days after the enema the effects of the treatment were determined by measurement of body weight, blood gas analysis and biopsy. […] Surgery was performed to allow registration of the hemodynamic parameters at 1 h intervals for 6 h (cardiac output [CO] data were measured only at the end of the experiments). […] In addition, fluorescence confocal endomicroscopy was performed to examine the microvasculature and morphologic changes of the mucosa of the distal colon, and full-thickness tissue samples and venous blood samples were taken to determine the biochemical changes in the colon and plasma.

nitrite/nitrate (NOx) = experiment: Nitrite/nitrate level in blood, rats with TNBS-induced colitis; conditions: 1.11 mmol/kg, vs groups L and M, FIG. 34
Experimental: as §1
The levels of plasma nitrite/nitrate (NOx), stable end products of NO were measured by the Griess reaction. This assay depends on the reduction of nitrate to nitrite, which is then converted into a colored azo dye compound that is detected spectrophotometrically at 540 nm.
as §3

xanthine oxidase enzyme [2] = experiment: Xanthine oxidase enzyme activity in tissue, mice with gastric injury without inflammation; conditions: gastric and duodenal tissue, 1.11 mmol/kg, vs control group A, FIGS. 6a/6b
Experimental: as §2
First experiments regarding the effect of the compound of formula (I) and a pharmaceutical composition comprising the compound of formula (I) (clear aqueous solution of compound of formula (I) at pH 4.8), respectively, on gastric injury without inflammation were conducted on mice. 48 animals were randomly allocated into three groups. Group A (n=16) served as sham-operated controls. Samples of all animals were drawn on day 1 of the clinical tests. On day 2 the animals of group B (n=16) were force-fed acetylsalicylic acid (ASS) (1.11 mmol/kg body weight). Group C (n=16) was force-fed 1.11 mmol/kg body weight of the compound according to the invention. Group A only received the respective solvent (25% ethanol in water). One day after the gavage, additional samples were drawn. Fluorescence confocal endomicroscopy was performed to examine the microvasculature and morphologic changes of the mucosa of the distal colon, […] The effects were determined by way of measurement of body weight, blood gas analysation and biopsy. […]

[3] = tested on: collagen-induced arthritis (CIA); experiment: Collagen-induced arthritis (CIA), thermal stimulation (inflammatory hyperalgesia); conditions: mice with CIA, 1.11 mmol/kg force-fed, vs untreated arthritis group 2, FIG. 37
Experimental: Further clinical studies were performed with animals having collagen-induced arthritis (CIA). In these studies, mice were used as test animals. At the age of eight weeks, the animals were immunized intradermally at the base of the tail with 50 μl of bovine collagen II emulsified in 50 μl of complete Freund's adjuvant. A second booster immunization was performed 3 weeks later, when 50 μl of incomplete Freund's adjuvant was administered with or without the same volume of collagen H. The animals were randomly allocated into experimental groups wherein group 1 served as control, having no arthritis, group 2 served as second control having arthritis, but receiving no further treatment, and group 3 having arthritis and being treated with compound according to the invention. The animals of group 3 were force-fed 1.11 mmol/kg body weight of the compound according to the invention from the first immunization until the end of the experiments. The severity of CIA was evaluated using a clinical scoring system; inflammatory hyperalgesia was detected with thermal stimulation.
The animals were acclimatized to the experimental conditions for 1 hour preceding the test. Then they were placed onto a heating plate set to 40° C. to assess their thermal hypersensitivity. […]

SMILES	plasma TNF-α level (TNF-α)	macroscopic score of colon inflammation (colon inflammation)	activity of xanthine oxidase enzyme (xanthine oxidase enzyme [1])	nitrite/nitrate level in the blood (nitrite/nitrate (NOx))	activity of xanthine oxidase enzyme (xanthine oxidase enzyme [2])	thermosensitivity (thermal stimulation score, 40° C. heating plate) [3]
CC(=O)Oc1ccccc1C(=O)O [ASS, acetylsalicylic acid, reference compound]	increase in the plasma TNF-α level	slightly less severe symptoms	only a slight decrease in activity	increased nitrite/nitrate level	increased activity	–
CC(=O)Oc1ccccc1C(=O)NC(CO)(CO)CO [compound according to the invention]	almost no change	only showed increased erythema	enzyme activity comparable to that of healthy animals	nitrite/nitrate levels comparable to those of healthy animals	no such increase	significantly lower thermosensitivity
